# Laboratory results reported in patent publication US8765748B2, “Indazolyl, benzimidazolyl, benzotriazolyl substituted indolinone derivatives as kinase inhibitors useful in the treatment of cancer” (University Health Network, priority 2007, dated 2014).
# Where two headings read alike, the source gives them in different places.
# How the values were obtained:
# human PLK4 = target: T1, human PLK4 (Homo sapiens, UniProt O00444); assay: PLK4 Inhibition Assay (indirect ELISA); type: biochemical
# T1 construct: amino terminal GST fusion of residues 1-391 of human PLK4; made in house; host or cells: E. coli
# T1 sequence (O00444 1-391): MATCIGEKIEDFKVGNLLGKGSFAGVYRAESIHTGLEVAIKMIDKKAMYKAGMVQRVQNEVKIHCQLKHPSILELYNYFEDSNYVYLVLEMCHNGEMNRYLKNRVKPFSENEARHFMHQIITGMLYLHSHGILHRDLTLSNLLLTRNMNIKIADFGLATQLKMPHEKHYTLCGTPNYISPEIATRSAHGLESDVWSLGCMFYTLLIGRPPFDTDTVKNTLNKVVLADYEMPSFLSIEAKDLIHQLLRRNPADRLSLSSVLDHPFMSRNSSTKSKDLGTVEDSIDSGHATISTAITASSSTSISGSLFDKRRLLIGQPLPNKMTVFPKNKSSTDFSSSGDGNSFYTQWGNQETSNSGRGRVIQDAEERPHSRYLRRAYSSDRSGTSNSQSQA
# Summary of the method: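 Dephosphorylated (lambda phosphatase) GST-PLK4 activity read by indirect ELISA. Compounds were pre-incubated with enzyme for 15 minutes before ATP was added. IC50 came from a non-linear 4-point logistic fit.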
# A549 lung cancer cells = assay: Cell growth inhibition, Sulforhodamine B assay (SRB); type: cell-based; details: Homo sapiens, A549, 120 h, 5 days culture, read-out: Cell Line GI50 Range, A-549
# Description: (§1) Breast cancer cells (MCF-7, MDA-MB-468, HCC1954), colon cancer cells (SW620) and lung cancer cells (A549), together with human mammary epithelial primary cells (HMEC), were seeded (1000 to 4000 per 80 μl per well depending on the cell growth rate) into 96 well plates, 24 hours before compound overlay. Compounds were prepared as 10 mM stock solutions in 100% DMSO which were diluted with DMEM (Dulbecco's Modified Eagle's Medium) cell growth Medium (Invitrogen, Burlington, ON, Canada) containing 10% FBS (Fetal Bovine Serum) to concentrations ranging from 50 nM to 250 μM. Aliquots (20 μl) from each concentration were overlaid to 80 μl of the pre-seeded cells in the 96 well plates to make final concentrations of 10 nM to 50 μM. The cells were cultured for 5 days before the Sulforhodamine B assay (SRB) was performed to determine the compound's cell growth inhibition activity.
# (§2) Sulforhodamine B (purchased from Sigma, Oakville, ON, Canada) is a water-soluble dye that binds to the basic amino acids of the cellular proteins. Thus, colorimetric measurement of the bound dye provides an estimate of the total protein mass that is related to the cell number. the cells are fixed in situ by gently aspirating off the culture media and adding 50 μl ice cold 10% Tri-chloroacetic Acid (TCA) per well and incubate at 4° C. for 30-60 min, The plates are washed with water five times and allowed to air dry for 5 min. Addition of 50 μl 0.4% (w/v) SRB solution in 1% (v/v) acetic acid to each well and incubatation for 30 min at RT completes the staining reaction. Following staining, plates are washed four times with 1% acetic acid to remove unbound dye and then allowed to air dry for 5 min. The stain is solubilized with 100 μl of 10 mM Tris pH10.5 per well. Absorbance is read at 570 nm.
# (§3) The percentage (%) of relative growth inhibition was calculated by comparing to DMSO treated only cells (100%). GI50's were determined for compounds with cytotoxic activity. The GI50 was calculated using GraphPad PRISM software (GraphPad Software, Inc., San Diego, Calif., USA).
# [1] = test system: MDA-MB-468 basal breast cancer cell line; assay: as above; type: cell-based; details: Homo sapiens, MDA-MB-468, 120 h; 5 days culture, SRB; read-out: Cell Line GI50 Range, MDA-MB-468
# Description: as §1, §2, §3
# [2] = test system: MCF-7 luminal breast cancer cell line; assay: as above; type: cell-based; details: Homo sapiens, MCF7, 120 h; 5 days culture, SRB; read-out: Cell Line GI50 Range, MCF-7
# Description: as §1, §2, §3
# [3] = test system: HCC1954 basal breast cancer cell line; assay: as above; type: cell-based; details: Homo sapiens, HCC1954, 120 h, 5 days culture, read-out: Cell Line GI50 Range, HCC-1954
# Description: as §1, §2, §3
# SW620 colon cancer cells = assay: as above; type: cell-based; details: Homo sapiens, SW-620, 120 h, 5 days culture, read-out: Cell Line GI50 Range, SW-620
# Description: as §1, §2, §3
# Aurora A = target: T2, Aurora A (Homo sapiens, UniProt O14965); assay: Aurora A Inhibition Assay (Z-Lyte); type: biochemical; details: for inhibition at 10 µM: 10 μM compound, read-out: Aurora A relative inhibition percentage at a dose of 10 μM; for IC50: 20 μM ATP, 12 nM Aurora A, read-out: Aurora A IC50 Ranges
# T2 construct: purchased Invitrogen PV3612
# T2 sequence (O14965 1-403): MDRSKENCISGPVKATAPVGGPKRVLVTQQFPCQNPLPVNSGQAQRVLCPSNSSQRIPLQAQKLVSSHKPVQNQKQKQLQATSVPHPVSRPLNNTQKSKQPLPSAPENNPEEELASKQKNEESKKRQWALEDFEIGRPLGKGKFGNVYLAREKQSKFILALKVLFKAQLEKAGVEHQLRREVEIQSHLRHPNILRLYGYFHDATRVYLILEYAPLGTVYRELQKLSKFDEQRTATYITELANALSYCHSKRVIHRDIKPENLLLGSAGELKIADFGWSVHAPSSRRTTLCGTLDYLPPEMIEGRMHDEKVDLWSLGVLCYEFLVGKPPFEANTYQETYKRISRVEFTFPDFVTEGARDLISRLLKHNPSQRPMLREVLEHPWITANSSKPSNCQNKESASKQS
# Description: (§4) Aurora A inhibition was determined using the Z-Lyte assay kit from Invitrogen. The assay was performed using the recommended manufacturer's instructions with 20 μM ATP and 12 nM Aurora A (Invitrogen cat #PV3612). The % inhibition values were determined according to the manufacturer's directions and IC50 values were obtained using a non-linear 4 point logistic curve fit (XLfit4, IDBS)
# PLK2 = target: T3, PLK2 (Homo sapiens, UniProt Q9NYY3); assay: PLK2 Inhibition Assay (Z-Lyte); type: biochemical; details: for inhibition at 10 µM: 10 μM compound, read-out: PLK2 relative inhibition percentage at a dose of 10 μM
# T3 construct: purchased Invitrogen PV4204
# Description: as §4, with “PLK2” for “Aurora A”, “Invitrogen (cat #PV3802).” for “Invitrogen.”, “60” for “20”, “133” for “12”, “#PV4204).” for “#PV3612).”
# PLK1 = target: T4, PLK1 (Homo sapiens, UniProt P53350); assay: PLK1 Inhibition Assay (Z-Lyte); type: biochemical; details: for IC50: 25 μM ATP, 8 nM PLK1, read-out: PLK1 IC50 Ranges; for inhibition at 10 µM: 10 μM compound, read-out: PLK1 relative inhibition percentage at a dose of 10 μM
# T4 construct: purchased Invitrogen PV3501
# Description: PLK1 inhibition was determined using the Z-Lyte assay kit from Invitrogen (cat #PV3802). […] The % inhibition values were determined according to the manufacturer's directions and IC50 values were obtained using a non-linear 4 point logistic curve fit (XLfit4, IDBS)
# Aurora B = target: T5, Aurora B (Homo sapiens, UniProt Q96GD4); assay: Aurora B Inhibition Assay (Z-Lyte); type: biochemical; details: for IC50: 128 μM ATP, 28 nM Aurora B, read-out: Aurora B IC50 Ranges
# T5 construct: purchased Invitrogen PV3970
# Description: as §4, with “Aurora B” for “Aurora A”, “with 128” for “with 20”, “and 28” for “and 12”, “cat #PV3970).” for “cat #PV3612).”
# PLK3 = target: T6, PLK3 (Homo sapiens, UniProt Q9H4B4); assay: PLK3 Inhibition Assay (Z-Lyte); type: biochemical; details: 100 μM ATP, 21 nM PLK3
# T6 construct: purchased Invitrogen PV3812
# Description: as §4, with “PLK3” for “Aurora A”, “Invitrogen (cat #PV3802).” for “Invitrogen.”, “100” for “20”, “21” for “12”, “#PV3812).” for “#PV3612).”, “IDBS).” for “IDBS)”
# [4] = 15 μM ATP, 4 nM GST-PLK4, read-out: PLK4 IC50 Ranges
# T5 sequence (Q96GD4 whole entry): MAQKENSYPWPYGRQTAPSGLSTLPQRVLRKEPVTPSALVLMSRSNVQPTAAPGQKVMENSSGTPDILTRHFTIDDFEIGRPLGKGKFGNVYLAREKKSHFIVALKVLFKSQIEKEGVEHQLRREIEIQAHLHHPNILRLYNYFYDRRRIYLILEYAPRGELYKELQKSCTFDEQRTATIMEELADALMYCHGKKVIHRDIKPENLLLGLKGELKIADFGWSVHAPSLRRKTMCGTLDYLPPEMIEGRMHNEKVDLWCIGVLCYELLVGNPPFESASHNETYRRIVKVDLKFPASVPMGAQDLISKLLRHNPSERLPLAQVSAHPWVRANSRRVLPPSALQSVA
# T4 sequence (P53350 whole entry): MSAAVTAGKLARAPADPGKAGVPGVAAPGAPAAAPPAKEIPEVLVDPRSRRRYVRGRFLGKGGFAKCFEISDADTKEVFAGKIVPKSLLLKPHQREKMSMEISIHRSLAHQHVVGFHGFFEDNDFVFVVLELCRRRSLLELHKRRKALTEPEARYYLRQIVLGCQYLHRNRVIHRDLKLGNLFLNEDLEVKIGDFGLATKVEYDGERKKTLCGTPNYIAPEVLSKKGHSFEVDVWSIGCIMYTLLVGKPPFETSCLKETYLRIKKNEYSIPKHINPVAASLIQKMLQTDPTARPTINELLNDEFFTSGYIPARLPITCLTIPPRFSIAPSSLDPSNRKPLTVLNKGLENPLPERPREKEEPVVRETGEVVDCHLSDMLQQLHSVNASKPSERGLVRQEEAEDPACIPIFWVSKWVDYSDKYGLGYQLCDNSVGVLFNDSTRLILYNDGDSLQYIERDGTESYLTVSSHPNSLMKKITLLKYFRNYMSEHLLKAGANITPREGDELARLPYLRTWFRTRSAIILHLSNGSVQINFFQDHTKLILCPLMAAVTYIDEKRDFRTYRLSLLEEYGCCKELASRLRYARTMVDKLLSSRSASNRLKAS
# T3 sequence (Q9NYY3 whole entry): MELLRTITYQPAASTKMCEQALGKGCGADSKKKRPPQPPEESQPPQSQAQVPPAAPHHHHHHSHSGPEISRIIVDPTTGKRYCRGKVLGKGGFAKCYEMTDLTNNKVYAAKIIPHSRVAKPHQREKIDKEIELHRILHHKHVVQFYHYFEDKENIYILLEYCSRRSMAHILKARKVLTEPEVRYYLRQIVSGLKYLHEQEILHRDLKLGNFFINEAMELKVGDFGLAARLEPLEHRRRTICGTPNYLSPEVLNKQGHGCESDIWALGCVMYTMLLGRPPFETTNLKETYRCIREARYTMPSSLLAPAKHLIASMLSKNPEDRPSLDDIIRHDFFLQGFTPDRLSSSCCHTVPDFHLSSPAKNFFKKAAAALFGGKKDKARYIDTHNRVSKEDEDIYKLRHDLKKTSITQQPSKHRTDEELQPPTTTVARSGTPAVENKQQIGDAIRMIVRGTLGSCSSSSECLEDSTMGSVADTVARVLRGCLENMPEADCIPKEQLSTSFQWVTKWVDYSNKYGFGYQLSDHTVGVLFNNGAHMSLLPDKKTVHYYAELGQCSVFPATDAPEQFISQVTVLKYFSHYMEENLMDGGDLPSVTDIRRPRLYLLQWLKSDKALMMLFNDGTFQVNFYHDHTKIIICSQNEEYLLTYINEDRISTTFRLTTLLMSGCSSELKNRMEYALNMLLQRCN
# T6 sequence (Q9H4B4 whole entry): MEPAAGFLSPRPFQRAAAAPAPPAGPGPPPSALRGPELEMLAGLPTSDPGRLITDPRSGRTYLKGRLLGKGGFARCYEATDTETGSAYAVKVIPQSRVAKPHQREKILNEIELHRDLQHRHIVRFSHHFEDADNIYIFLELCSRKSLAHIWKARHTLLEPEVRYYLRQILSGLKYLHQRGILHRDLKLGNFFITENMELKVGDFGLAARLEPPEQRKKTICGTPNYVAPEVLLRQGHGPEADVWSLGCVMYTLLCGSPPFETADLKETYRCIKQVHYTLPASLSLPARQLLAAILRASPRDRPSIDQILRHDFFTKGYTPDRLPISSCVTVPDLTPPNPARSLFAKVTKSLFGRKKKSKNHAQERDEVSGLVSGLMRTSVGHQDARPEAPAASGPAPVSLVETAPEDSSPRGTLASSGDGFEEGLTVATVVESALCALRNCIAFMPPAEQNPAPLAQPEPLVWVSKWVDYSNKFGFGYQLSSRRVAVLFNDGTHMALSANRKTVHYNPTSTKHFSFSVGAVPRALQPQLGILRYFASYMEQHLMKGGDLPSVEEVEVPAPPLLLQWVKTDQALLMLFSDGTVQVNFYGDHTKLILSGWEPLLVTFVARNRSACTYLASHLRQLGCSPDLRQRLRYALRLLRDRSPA
Compound,IC50 (human PLK4; [4]) [µM],GI50 (A549 lung cancer cells) [µM],GI50 [1] [µM],GI50 [2] [µM],GI50 [3] [µM],GI50 (SW620 colon cancer cells) [µM],inhibition at 10 µM (Aurora A) [%],inhibition at 10 µM (PLK2) [%],IC50 (PLK1) [µM],IC50 (Aurora B) [µM],inhibition at 10 µM (PLK1) [%],IC50 (PLK3) [µM],"IC50 (PLK2; 60 μM ATP, 133 nM PLK2, read-out: PLK2 IC50 Ranges) [µM]","inhibition at 10 µM (Aurora B; 10 μM compound, read-out: Aurora B relative inhibition percentage at a dose of 10 μM) [%]",IC50 (Aurora A) [µM],IC50 (human PLK4) [µM]
"N#Cc1cccc2c1NC(=O)C2=Cc1ccc2cn[nH]c2c1 (mixture of isomers) [Example A45, (E and Z)-3-((1H-indazol-6-yl)methylene)-2-oxoindoline-7-carbonitrile]",5 to 50,–,–,–,–,–,–,–,–,–,–,> 0.5,–,–,–,–
"CN1CCN(c2ccc(-c3n[nH]c4cc(C=C5C(=O)Nc6ccccc65)ccc34)cn2)CC1 (mixture of isomers) [Example A96, (E and Z)-3-((3-(6-(4-methylpiperazin-1-yl)pyridin-3-yl)-1H-indazol-6-yl)methylene)indolin-2-one]",< 5,< 5,< 5,< 5,< 5,< 5,> 50,–,–,< 5,< 50,–,–,–,–,–
"O=C1Nc2cc(Cl)ccc2/C1=C\c1ccc2[nH]nnc2c1 [Example A4, (E)-3-((1H-benzo[d][1,2,3]triazol-5-yl)methylene)-6-chloroindolin-2-one]",5 to 50,–,5 to 20,5 to 20,–,–,–,–,5 to 50,–,–,–,–,–,–,–
"O=C1Nc2ccc(Br)cc2/C1=C\c1ccc2[nH]ncc2c1 [Example A31, (E)-3-((1H-indazol-5-yl)methylene)-5-bromoindolin-2-one]",< 5,–,< 5,< 5,–,–,< 50,–,> 50,–,–,–,5 to 50,> 50,–,–
"CN1CCN(c2ccc(-c3n[nH]c4cc(C=C5C(=O)Nc6ccc(Br)cc65)ccc34)cn2)CC1 (mixture of isomers) [Example A150, (E and Z)-5-bromo-3-((3-(6-(4-methylpiperazin-1-yl)pyridin-3-yl)-1H-indazol-6-yl)methylene)indolin-2-one]",< 5,< 5,< 5,< 5,< 5,< 5,–,–,–,–,–,–,–,–,–,–
"O=C1Nc2ccccc2/C1=C\c1ccc2[nH]cnc2c1 [Example A19, (E)-3-((1H-benzo[d]imidazol-5-yl)methylene)indolin-2-one]",5 to 50,–,< 5,5 to 20,–,–,–,–,5 to 50,–,–,–,–,–,–,–
"COc1ccc2c(c1)C(=Cc1ccc3cn[nH]c3c1)C(=O)N2 (mixture of isomers) [Example A83, (E and Z)-3-((1H-indazol-6-yl)methylene)-5-methoxyindolin-2-one]",< 5,–,–,–,–,–,> 50,> 50,–,< 5,> 50,–,–,–,–,–
"COc1ccc2c(c1)/C(=C\c1ccc3c(/C=C/c4cc[n+]([O-])cc4)n[nH]c3c1)C(=O)N2 [Example A117, 4-((E)-2-(6-((E)-(5-methoxy-2-oxoindolin-3-ylidene)methyl)-1H-indazol-3-yl)vinyl)pyridine 1-oxide]",–,–,–,–,–,–,–,< 50,–,< 5,< 50,–,–,–,< 5,< 5

# Continued, in another order:
IC50 (human PLK4; [4]) [µM],GI50 (A549 lung cancer cells) [µM],GI50 [1] [µM],GI50 [2] [µM],GI50 [3] [µM],GI50 (SW620 colon cancer cells) [µM],inhibition at 10 µM (Aurora A) [%],inhibition at 10 µM (PLK2) [%],IC50 (PLK1) [µM],IC50 (Aurora B) [µM],inhibition at 10 µM (PLK1) [%],IC50 (PLK3) [µM],"IC50 (PLK2; 60 μM ATP, 133 nM PLK2, read-out: PLK2 IC50 Ranges) [µM]","inhibition at 10 µM (Aurora B; 10 μM compound, read-out: Aurora B relative inhibition percentage at a dose of 10 μM) [%]",Compound,IC50 (Aurora A) [µM],IC50 (human PLK4) [µM]
< 5,> 50,5 to 20,20 to 50,> 50,20 to 50,–,–,–,–,–,–,–,–,"O=C1Nc2ccccc2/C1=C\c1ccc2c(C#Cc3cccnc3)n[nH]c2c1 [Example A147, (E)-3-((3-(pyridin-3-ylethynyl)-1H-indazol-6-yl)methylene)indolin-2-one]",–,–
< 5,–,5 to 20,5 to 20,–,–,> 50,< 50,5 to 50,< 5,–,–,–,–,"O=C1Nc2ccc(F)cc2/C1=C/c1ccc2cn[nH]c2c1 [Example A32, (Z)-3-((1H-indazol-6-yl)methylene)-5-fluoroindolin-2-one]",–,–
< 5,5 to 20,< 5,< 5,5 to 20,< 5,–,< 50,–,< 5,< 50,–,–,–,"COc1ccccc1/C=C/c1n[nH]c2cc(C=C3C(=O)Nc4ccccc43)ccc12 (mixture of isomers) [Example A59, (E and Z)-3-((3-((E)-2-methoxystyryl)-1H-indazol-6-yl)methylene)-indolin-2-one]",< 5,–
< 5,–,20 to 50,20 to 50,–,–,–,–,< 5,–,–,–,–,–,"CNC(=O)c1ccc2c(c1)NC(=O)C2=Cc1ccc2cn[nH]c2c1 (mixture of isomers) [Example A10, (E and Z)-(3-((1H-indazol-6-yl)methylene)-N-methyl-2-oxoindoline-6-carboxamide]",–,–
